{"source": "paper PMC9367672", "about": "“In vitro differences in toddalolactone metabolism in various species and its effect on cytochrome P450 expression” (Pharmaceutical Biology, 2022)", "key": {"[1]": {"experiment": "Metabolic stability assessment in mouse liver microsomes", "assay_type": "in vitro ADME", "conditions": "pH 7.4, MIMs, CYP incubation system, toddalolactone 20 μM, 0-90 min, read-out: half-life value (T1/2)", "experimental": "(§1) The CYP reaction system (200 μL) consisted of 0.1 M potassium phosphate buffer (pH 7.4), an NADPH-generating system (1 mM NADPH, 10 mM G-6-P, 1 unit/mL G-6-PD, 4 mM MgCl2), and liver microsomes or recombinant human microsomes (supersomes). Each of the in vitro enzymatic assays using liver microsomes was linear with respect to incubation time and amount of protein. After a pre-incubation at 37 °C for 3 min, the reactions were initiated by adding NADP^+. After incubating for 60 min, the reactions were quenched by adding 200 μL of ice-cold acetonitrile. Samples were centrifuged at 18,000 g for 15 min at 4 °C and 10 μL of supernatant was analyzed using an HPLC system. […]\n(§2) In the UGT reaction system, liver microsomes were incubated in 200 μL of the reaction system containing 4 mM UDPGA, 5 mM MgCl2, 20 µg/mL alamethicin, and 50 mM Tris-HCl buffer (pH 7.4). […] After centrifugation at 18,000 g for 15 min, 10 μL of the supernatant was analyzed by HPLC.\n(§3) Toddalolactone (20 μM) was incubated with different liver microsomes, including HLMs, DLMs, PLMs, MLMs, RAMs, RLMs or MIMs in oxidative metabolism and glucuronidation reaction systems. […] The mixtures were centrifuged at 18,000 g for 15 min at 4 °C and then 10 μL of the supernatant was analyzed by HPLC. […]\n(§4) The peak areas of toddalolactone and its metabolites were detected using a HPLC system (Shimadzu, Kyoto, Japan). […]"}, "[2]": {"experiment": "Metabolic stability assessment in rabbit liver microsomes", "assay_type": "in vitro ADME", "conditions": "pH 7.4, RAMs, toddalolactone 20 μM, 0-90 min", "experimental": "as §1, §2, §3, §4"}, "[3]": {"test_system": "CYP1A1", "experiment": "Western blot of CYP1A1 protein expression in HepG2 cells", "assay_type": "cell-based", "conditions": "50 μM, 24 h, vs control (0 μM), p < 0.05", "experimental": "Hep G2 cells were seeded into 100 mm Petri dishes and treated with different concentrations of toddalolactone (0, 10 and 50 µmol/L) for 24 h. Total protein was extracted using RIPA lysis buffer containing proteinase inhibitor (BestBio, Shanghai, China). After the protein concentration was measured using a bicinchoninic acid (BCA) assay kit (Beyotime, Shanghai, China), samples were electrophoretically transferred to polyvinylidene difluoride (PVDF) membranes. After blocking with TTBS (0.5% Tween 20, 10 mM Tris-HCl, pH 7.5, 150 mM NaCl) containing 5% non-fat milk for 1 h at room temperature, the membrane was incubated with antibodies against β-Actin, CYP1A1, and CYP3A5 overnight at 4 °C. Then, membranes were washed with TBS (10 mM Tris-HCl, pH 7.5, 150 mM NaCl) containing 0.05% Tween 20 three times and further incubated with HRP-conjugated secondary antibodies against rabbit (for β-actin, CYP1A1 and CYP3A5) for 1 h at room temperature."}, "[4]": {"test_system": "MIMs", "experiment": "Enzyme kinetics of toddalolactone metabolism in mouse liver microsomes (oxidative metabolism)", "assay_type": "in vitro ADME", "conditions": "MOMs (mouse liver microsomes), P450-catalyzed oxidation, P2 formation", "experimental": "The CYP reaction system (200 μL) consisted of 0.1 M potassium phosphate buffer (pH 7.4), an NADPH-generating system (1 mM NADPH, 10 mM G-6-P, 1 unit/mL G-6-PD, 4 mM MgCl2), and liver microsomes or recombinant human microsomes (supersomes). Each of the in vitro enzymatic assays using liver microsomes was linear with respect to incubation time and amount of protein. After a pre-incubation at 37 °C for 3 min, the reactions were initiated by adding NADP^+. After incubating for 60 min, the reactions were quenched by adding 200 μL of ice-cold acetonitrile. Samples were centrifuged at 18,000 g for 15 min at 4 °C and 10 μL of supernatant was analyzed using an HPLC system. NADPH or CYP enzyme sources were not used in the control group to ensure that the metabolic reactions were CYP- and NADPH-dependent. All incubation assays were completed in triplicate. The data are presented as mean ± standard deviation (SD).\nThe enzyme kinetics of toddalolactone in oxidative metabolism and glucuronidation were determined by incubating liver microsomes (0.2 mg/mL) or CYPs (15 nM) with different concentrations of toddalolactone (1–200 μM). […] The in vitro intrinsic clearance (CLint) was calculated based on the Vmax/Km ratio. Metabolites were quantified using the standard curve for toddalolactone because of the absence of metabolite standards. […]\nThe enzyme kinetics in oxidative metabolism and glucuronidation of toddalolactone were studied, and preliminary experiments were performed to ensure that metabolites were formed in the linear range of both reaction time and microsomal protein concentration. […] Based on the results of toddalolactone metabolism in different species, the kinetic parameter values in RLMs, DLMs, MLMs, HLMs, RAMs, MIMs, PLMs, CYP1A1 and CYP3A5 were calculated using P4, P4, P4, P4, P2, P2, P4, P4 and P4 data in oxidative metabolism, respectively. In the glucuronidation reaction, the kinetic parameter values in RLMs, MLMs, HLMs, RAMs and PLMs were calculated using P5, P6, P6, P6 and P5 data, respectively."}}}
{"smiles": "COc1cc2oc(=O)ccc2c(OC)c1C[C@@H](O)C(C)(C)O", "note": "[toddalolactone]", "values": [{"measurement": "half-life at 20 μM", "setting": "[1]", "value": "3.92 ± 0.35", "unit": "h"}, {"measurement": "half-life at 20 μM", "setting": "[2]; CYP incubation system, read-out: half-life value (T1/2)", "value": "6.78 ± 0.517", "unit": "h"}, {"measurement": "half-life at 20 μM", "setting": "[2]; UGT incubation system, read-out: T1/2 value", "value": "2.07 ± 0.138", "unit": "h"}, {"measurement": "induction of CYP1A1 protein expression higher than that of the control", "setting": "[3]", "value": "approximately 50%"}, {"measurement": "K m", "setting": "[4]", "value": "146.32 ± 26.62", "unit": "µM"}, {"measurement": "V max", "setting": "[4]; toddalolactone 1–200 μM", "value": "235.91 ± 22.75", "unit": "pmol/min/mg protein"}]}
